This passage reports IC50 results from patent publication US20200361895A1, “NOVEL SULFONAMIDE CARBOXAMIDE COMPOUNDS” (Inflazome Limited, priority 2017, published 2020).

Structures can show the parent of a compound that is named as a salt.

In this test the target is NLRP3 (Homo sapiens, UniProt Q96P20). The experiment in a line: THP-1 cells pyroptosis assay (LPS + nigericin, resazurin readout; THP IC50). In kind it is cell-based. On the set-up: Seed THP-1 cells (25,000 cells/well) containing 1.0 μg/ml LPS in 40 μl of RPMI medium; host or cells: THP-1 cells. As for the experimental part: THP-1 cells (ATCC #TIB-202) were grown in RPMI containing L-glutamine (Gibco #11835) supplemented with 1 mM sodium pyruvate (Sigma #S8636) and penicillin (100 units/ml)/streptomycin (0.1 mg/ml) (Sigma #P4333) in 10% Fetal Bovine Serum (FBS) (Sigma #F0804). The cells were routinely passaged and grown to confluency (˜10^6 cells/ml). On the day of the experiment, THP-1 cells were harvested and resuspended into RPMI medium (without FBS). The cells were then counted and viability (>90%) checked by Trypan blue (Sigma #T8154). Appropriate dilutions were made to give a concentration of 625,000 cells/ml. To this diluted cell solution was added LPS (Sigma #L4524) to give a 1 μg/ml Final Assay Concentration (FAC). 40 μl of the final preparation was aliquoted into each well of a 96-well plate. The plate thus prepared was used for compound screening.
The following method step-by-step assay was followed for compound screening. • 1. Seed THP-1 cells (25,000 cells/well) containing 1.0 μg/ml LPS in 40 μl of RPMI medium (without FBS) in 96-well, black walled, clear bottom cell culture plates coated with poly-D-lysine (VWR #734-0317) • 2. Add 5 μcompound (8 points half-log dilution, with 10 μM top dose) or vehicle (DMSO 0.1% FAC) to the appropriate wells • 3. Incubate for 3 hrs at 37° C. and 5% CO2 • 4. Add 5 μnigericin (Sigma #N7143) (FAC 5 μM) to all wells • 5. Incubate for 1 hr at 37° C. and 5% CO2 • 6. At the end of the incubation period, spin plates at 300×g for 3 mins and remove supernatant • 7. Then add 50 μl of resazurin (Sigma #R7017) (FAC 100 μM resazurin in RPMI medium without FBS) and incubate plates for a further 1-2 hrs at 37° C. and 5% CO2 • 8. Plates were read in an Envision reader at Ex 560 nm and Em 590 nm • 9. IC50 data is fitted to a non-linear regression equation (log inhibitor vs response-variable slope 4-parameters)
A general note: Resazurin is reduced to fluorescent resorufin, in cell work by metabolically active cells.

Sequence of NLRP3 (Q96P20 whole entry): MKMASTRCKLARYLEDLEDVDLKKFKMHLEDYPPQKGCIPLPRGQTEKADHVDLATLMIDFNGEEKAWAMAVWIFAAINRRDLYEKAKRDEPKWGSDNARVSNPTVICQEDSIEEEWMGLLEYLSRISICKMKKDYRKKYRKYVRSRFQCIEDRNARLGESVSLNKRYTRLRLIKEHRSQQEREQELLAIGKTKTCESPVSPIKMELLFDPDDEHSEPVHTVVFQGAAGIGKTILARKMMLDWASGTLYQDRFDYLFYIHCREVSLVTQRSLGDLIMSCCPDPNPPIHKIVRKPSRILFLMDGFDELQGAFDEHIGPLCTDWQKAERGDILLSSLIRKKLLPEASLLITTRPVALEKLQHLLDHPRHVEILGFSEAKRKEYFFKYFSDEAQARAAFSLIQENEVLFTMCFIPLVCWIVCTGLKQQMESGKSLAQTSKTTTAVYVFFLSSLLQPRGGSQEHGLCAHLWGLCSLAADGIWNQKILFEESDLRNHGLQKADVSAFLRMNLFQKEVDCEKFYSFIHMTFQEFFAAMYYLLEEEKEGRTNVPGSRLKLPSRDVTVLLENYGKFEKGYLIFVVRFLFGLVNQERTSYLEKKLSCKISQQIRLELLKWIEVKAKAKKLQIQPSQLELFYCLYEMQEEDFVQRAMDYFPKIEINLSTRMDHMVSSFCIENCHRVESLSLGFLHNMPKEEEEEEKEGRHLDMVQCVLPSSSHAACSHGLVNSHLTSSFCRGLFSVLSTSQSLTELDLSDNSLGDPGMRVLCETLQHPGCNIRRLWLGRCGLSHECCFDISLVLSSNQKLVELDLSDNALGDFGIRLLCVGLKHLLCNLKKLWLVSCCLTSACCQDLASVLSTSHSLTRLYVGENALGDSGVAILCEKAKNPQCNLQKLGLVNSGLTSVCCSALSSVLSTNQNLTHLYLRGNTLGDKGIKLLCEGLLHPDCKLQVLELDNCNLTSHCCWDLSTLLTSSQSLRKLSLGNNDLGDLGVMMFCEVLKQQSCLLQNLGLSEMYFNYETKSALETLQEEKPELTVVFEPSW

With `CC(C)c1cc(F)cc(-c2cnn(C)c2)c1NC(=O)NS(=O)(=O)c1ccn(C(C)C)n1` [Example 2, N-((4-Fluoro-2-iso-propyl-6-(1-methyl-1H-pyrazol-4-yl)phenyl)carbamoyl)-1-iso-propyl-1H-pyrazole-3-sulfonamide], the IC50 (as a rule, the midpoint of a concentration-inhibition curve) is ≤ 5 µM.
As for `CC(C)c1cc(F)cc(-c2cncn2C)c1NC(=O)NS(=O)(=O)c1ccn(C(C)C)n1` [Example 3, N-((4-Fluoro-2-iso-propyl-6-(1-methyl-1H-imidazol-5-yl)phenyl)carbamoyl)-1-iso-propyl-1H-pyrazole-3-sulfonamide], the half-inhibitory concentration (IC50) is ≤ 5 µM.
The result for `CC(C)c1cc(F)cc(-c2ccccc2)c1NC(=O)NS(=O)(=O)c1ccn(C(C)C)n1` [Example 4, N-((5-Fluoro-3-iso-propyl-[1,1′-biphenyl]-2-yl)carbamoyl)-1-iso-propyl-1H-pyrazole-3-sulfonamide] reads ≤ 5 µM; that for `CC(C)c1cc(F)cc(-c2ccnn2C)c1NC(=O)NS(=O)(=O)c1ccn(C(C)C)n1` [Example 5, N-((4-Fluoro-2-iso-propyl-6-(1-methyl-1H-pyrazol-5-yl)phenyl)carbamoyl)-1-iso-propyl-1H-pyrazole-3-sulfonamide], ≤ 5 µM.
Regarding `CC(C)c1cc(F)cc(-c2cncs2)c1NC(=O)NS(=O)(=O)c1ccn(C(C)C)n1` [Example 6, N-((4-Fluoro-2-iso-propyl-6-(thiazol-5-yl)phenyl)carbamoyl)-1-iso-propyl-1H-pyrazole-3-sulfonamide], the IC50 was ≤ 5 µM.
Regarding `CC(C)c1cc(F)cc(-c2cnoc2)c1NC(=O)NS(=O)(=O)c1ccn(C(C)C)n1` [Example 7, N-((4-Fluoro-2-iso-propyl-6-(isoxazol-4-yl)phenyl)carbamoyl)-1-iso-propyl-1H-pyrazole-3-sulfonamide], the IC50 is ≤ 5 µM.
The same measure for `CC(C)c1cc(F)cc(-c2cccc(C#N)c2)c1NC(=O)NS(=O)(=O)c1ccn(C(C)C)n1` [Example 8, N-((3′-Cyano-5-fluoro-3-iso-propyl-[1,1′-biphenyl]-2-yl)carbamoyl)-1-iso-propyl-1H-pyrazole-3-sulfonamide, sodium salt]: ≤ 5 µM; for `CC(C)c1cc(F)cc(-c2ccc(C#N)cc2)c1NC(=O)NS(=O)(=O)c1ccn(C(C)C)n1` [Example 9, N-((4′-Cyano-5-fluoro-3-iso-propyl-[1,1′-biphenyl]-2-yl)carbamoyl)-1-iso-propyl-1H-pyrazole-3-sulfonamide, sodium salt]: ≤ 5 µM; for `Cc1cc(-c2cc(F)cc(C(C)C)c2NC(=O)NS(=O)(=O)c2ccn(C(C)C)n2)n(C)n1` [Example 11, N-((2-(1,3-Dimethyl-1H-pyrazol-5-yl)-4-fluoro-6-iso-propylphenyl)carbamoyl)-1-iso-propyl-1H-pyrazole-3-sulfonamide, partial ammonium salt]: ≤ 0.5 µM.
Take `Cc1cc(-c2cc(F)cc(C(C)C)c2NC(=O)NS(=O)(=O)c2ccn(C(C)C)n2)ccn1` [Example 13, N-((4-Fluoro-2-iso-propyl-6-(2-methylpyridin-4-yl)phenyl)carbamoyl)-1-iso-propyl-1H-pyrazole-3-sulfonamide, partial ammonium salt]: the half-inhibitory concentration (IC50) was ≤ 0.5 µM.
The same measure for `Cc1ncccc1-c1cc(F)cc(C(C)C)c1NC(=O)NS(=O)(=O)c1ccn(C(C)C)n1` [Example 14, N-((4-Fluoro-2-iso-propyl-6-(2-methylpyridin-3-yl)phenyl)carbamoyl)-1-iso-propyl-1H-pyrazole-3-sulfonamide, partial ammonium salt]: ≤ 5 µM; for `Cc1ccc(-c2cc(F)cc(C(C)C)c2NC(=O)NS(=O)(=O)c2ccn(C(C)C)n2)cn1` [Example 15, N-((4-Fluoro-2-iso-propyl-6-(6-methylpyridin-3-yl)phenyl)carbamoyl)-1-iso-propyl-1H-pyrazole-3-sulfonamide, partial ammonium salt]: ≤ 5 µM; for `CC(C)c1cc(F)cc(-c2cncc(Cl)c2)c1NC(=O)NS(=O)(=O)c1ccn(C(C)C)n1` [Example 16, N-((2-(5-Chloropyridin-3-yl)-4-fluoro-6-iso-propylphenyl)carbamoyl)-1-iso-propyl-1H-pyrazole-3-sulfonamide, partial ammonium salt]: ≤ 5 µM.
In the case of `COc1cncc(-c2cc(F)cc(C(C)C)c2NC(=O)NS(=O)(=O)c2ccn(C(C)C)n2)c1` [Example 17, N-((4-Fluoro-2-iso-propyl-6-(5-methoxypyridin-3-yl)phenyl)carbamoyl)-1-iso-propyl-1H-pyrazole-3-sulfonamide, partial ammonium salt], the half-inhibitory concentration (IC50) is ≤ 5 µM.
The same measure for `CC(C)c1cc(F)cc(-c2cncnc2)c1NC(=O)NS(=O)(=O)c1ccn(C(C)C)n1` [Example 18, N-((4-Fluoro-2-iso-propyl-6-(pyrimidin-5-yl)phenyl)carbamoyl)-1-iso-propyl-1H-pyrazole-3-sulfonamide]: ≤ 1 µM; for `COc1ccc(-c2cc(F)cc(C(C)C)c2NC(=O)NS(=O)(=O)c2ccn(C(C)C)n2)cn1` [Example 19, N-((4-Fluoro-2-iso-propyl-6-(6-methoxypyridin-3-yl)phenyl)carbamoyl)-1-iso-propyl-1H-pyrazole-3-sulfonamide]: ≤ 1 µM; for `Cc1ccncc1-c1cc(F)cc(C(C)C)c1NC(=O)NS(=O)(=O)c1ccn(C(C)C)n1` [Example 20, N-((4-Fluoro-2-iso-propyl-6-(4-methylpyridin-3-yl)phenyl)carbamoyl)-1-iso-propyl-1H-pyrazole-3-sulfonamide, partial ammonium salt]: ≤ 5 µM.
The same measure for `CC(C)c1cc(F)cc(-c2cncc(F)c2)c1NC(=O)NS(=O)(=O)c1ccn(C(C)C)n1` [Example 21, N-((4-Fluoro-2-(5-fluoropyridin-3-yl)-6-isopropylphenyl)carbamoyl)-1-iso-propyl-1H-pyrazole-3-sulfonamide, partial ammonium salt]: ≤ 5 µM.
`Cc1cnccc1-c1cc(F)cc(C(C)C)c1NC(=O)NS(=O)(=O)c1ccn(C(C)C)n1` [Example 22, N-((4-Fluoro-2-iso-propyl-6-(3-methylpyridin-4-yl)phenyl)carbamoyl)-1-iso-propyl-1H-pyrazole-3-sulfonamide]: the IC50 is ≤ 1 µM.
For the compound `COc1cc(-c2cc(F)cc(C(C)C)c2NC(=O)NS(=O)(=O)c2ccn(C(C)C)n2)cc(C)n1` [Example 26, N-((4-Fluoro-2-iso-propyl-6-(2-methoxy-6-methylpyridin-4-yl)phenyl)carbamoyl)-1-iso-propyl-1H-pyrazole-3-sulfonamide], the IC50 was ≤ 5 µM.
In the case of `CCc1cc(-c2cc(F)cc(C(C)C)c2NC(=O)NS(=O)(=O)c2ccn(C(C)C)n2)ccn1` [Example 29, N-((2-(2-Ethylpyridin-4-yl)-4-fluoro-6-iso-propylphenyl)carbamoyl)-1-iso-propyl-1H-pyrazole-3-sulfonamide], the IC50 is ≤ 5 µM.
As for `CC(C)c1cc(F)cc(-c2cnn(C)c2)c1NC(=O)NS(=O)(=O)c1cn(C(C)C)cn1` [Example 31, N-((4-Fluoro-2-iso-propyl-6-(1-methyl-1H-pyrazol-4-yl)phenyl)carbamoyl)-1-iso-propyl-1H-imidazole-4-sulfonamide], the IC50 is ≤ 5 µM.
Consider `CC(C)c1cc(F)cc(-c2cncnc2)c1NC(=O)NS(=O)(=O)c1cc(CN(C)C)n(C)n1` [Example 42, 5-((Dimethylamino)methyl)-N-((4-fluoro-2-isopropyl-6-(pyrimidin-5-yl)phenyl)carbamoyl)-1-methyl-1H-pyrazole-3-sulfonamide], for which the half-maximal inhibitory concentration (IC50) is ≤ 5 µM.
The same measure for `CC(C)c1cc(F)cc(-c2cncnc2)c1NC(=O)NS(=O)(=O)c1cc(CN(C)C)n(C(C)C)n1` [Example 43, 5-((Dimethylamino)methyl)-N-((4-fluoro-2-isopropyl-6-(pyrimidin-5-yl)phenyl)carbamoyl)-1-isopropyl-1H-pyrazole-3-sulfonamide]: ≤ 5 µM; for `CC(C)c1cc(F)cc(-c2ccnc(C(F)(F)F)c2)c1NC(=O)NS(=O)(=O)c1ccn(C(C)C)n1` [Example 47, N-((4-Fluoro-2-isopropyl-6-(2-(trifluoromethyl)pyridin-4-yl)phenyl)carbamoyl)-1-isopropyl-1H-pyrazole-3-sulfonamide]: ≤ 1 µM.
Regarding `CC(C)c1cc(F)cc(-c2ccnc(N(C)C)c2)c1NC(=O)NS(=O)(=O)c1ccn(C(C)C)n1` [Example 50, N-((2-(2-(Dimethylamino)pyridin-4-yl)-4-fluoro-6-isopropylphenyl)carbamoyl)-1-isopropyl-1H-pyrazole-3-sulfonamide], the 50% inhibitory concentration (IC50) is ≤ 5 µM.
